Source: ChEMBL document CHEMBL1136374, “Inactivation of S-adenosyl-L-homocysteine hydrolase with novel 5'-thioadenosine derivatives. Antiviral effects” (Bioorg Med Chem Lett, 2003)
Values after ≈ are worked out from the molar mass of the structure shown. Active and inactive are the calls of the source. The calls are words filed in the database; no cut-off is given here.

What was measured:
E6SM = experiment: Compound tested for cytotoxicity in human embryonic skin muscle E6SM cell cultures; type: functional
Adenosylhomocysteinase [1] = target: T1, Adenosylhomocysteinase (Homo sapiens, UniProt P23526); experiment: Binding affinity against S-Adenosyl-homocysteine hydrolase was determined
Target sequence in this assay (P23526 whole entry): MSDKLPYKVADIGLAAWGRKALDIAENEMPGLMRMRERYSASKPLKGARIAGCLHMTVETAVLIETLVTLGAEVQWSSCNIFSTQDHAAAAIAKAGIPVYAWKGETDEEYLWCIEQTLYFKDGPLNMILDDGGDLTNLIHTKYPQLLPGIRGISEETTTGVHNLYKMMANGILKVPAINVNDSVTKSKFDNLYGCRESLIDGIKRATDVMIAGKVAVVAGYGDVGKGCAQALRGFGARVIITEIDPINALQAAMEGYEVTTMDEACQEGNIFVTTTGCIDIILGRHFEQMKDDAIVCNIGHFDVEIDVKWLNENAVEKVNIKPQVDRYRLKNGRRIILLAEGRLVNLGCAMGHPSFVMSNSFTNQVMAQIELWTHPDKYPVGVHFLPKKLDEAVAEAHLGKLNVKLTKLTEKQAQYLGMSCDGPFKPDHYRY

Adenosylhomocysteinase [2] = target: T1, Adenosylhomocysteinase; experiment: Change in the S-Adenosyl-homocysteine hydrolase enzyme's NAD+ content until complete inactivation was determined
Target sequence in this assay (P23526 2-432 limits assumed): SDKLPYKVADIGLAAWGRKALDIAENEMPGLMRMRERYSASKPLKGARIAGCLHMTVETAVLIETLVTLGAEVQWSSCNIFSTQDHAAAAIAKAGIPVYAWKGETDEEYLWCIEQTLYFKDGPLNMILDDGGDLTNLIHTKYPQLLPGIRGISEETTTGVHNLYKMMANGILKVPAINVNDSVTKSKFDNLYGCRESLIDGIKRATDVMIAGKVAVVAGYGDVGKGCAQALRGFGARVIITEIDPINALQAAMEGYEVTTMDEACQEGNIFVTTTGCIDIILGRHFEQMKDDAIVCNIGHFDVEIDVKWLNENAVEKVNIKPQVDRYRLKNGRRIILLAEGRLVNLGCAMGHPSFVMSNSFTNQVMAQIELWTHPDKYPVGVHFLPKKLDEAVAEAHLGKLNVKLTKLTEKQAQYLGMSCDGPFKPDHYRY

Adenosylhomocysteinase [3] = target: T1, Adenosylhomocysteinase; experiment: Enzyme kinetic property: kinact value was determined
Target sequence in this assay (P23526 2-432 limits assumed): as above

HEL [4] = experiment: Antiviral activity against Cytomegalovirus virus (CMV) strain AD-169 in HEL cells; No specific activity; type: functional, cell-based; conditions: Homo sapiens
HEL [5] = experiment: Antiviral activity against Cytomegalovirus virus (CMV) strain Davis in HEL cells; No specific activity; type: functional, cell-based; conditions: Homo sapiens
Human respirovirus 3 = experiment: Antiviral activity against Parainfluenza-3; No activity; type: functional, organism-based
Punta Toro virus = experiment: Antiviral activity against Punta Toro virus; No activity; type: functional, organism-based
Sindbis virus = experiment: Antiviral activity against Sindbis; No activity; type: functional, organism-based
Tacaribe virus = experiment: Activity against Taccaribe virus was determined; type: functional; conditions: Mammarenavirus tacaribeense
Vero = experiment: Compound tested for cytotoxicity in vero cell culture was determined; type: functional, Chlorocebus sabaeus
Junin virus = experiment: Activity against Junin virus was determined; type: functional; conditions: Mammarenavirus juninense
Coxsackievirus B4 = experiment: Antiviral activity against Coxsackie B4 virus; No activity; type: functional, organism-based

`N#CSC[C@H]1OC(n2cnc3c(N)ncnc32)[C@H](O)[C@@H]1O` (stereo partly specified) was tested, and the MTC (E6SM) was over 650 µM, the Ki (Adenosylhomocysteinase [1]) was 67 µM and the NAD (Adenosylhomocysteinase [2]) was 16%. The K inact (Adenosylhomocysteinase [3]) was 0.59 min⁻¹.

With `C=CSC[C@H]1OC(n2cnc3c(N)ncnc32)[C@H](O)[C@@H]1O` (stereo partly specified) the MTC (E6SM) was over 650 µM, the MIC (HEL [4]) was “inactive” and the MIC (HEL [5]) was “inactive”. The MIC (Human respirovirus 3) was “inactive”, the MIC (Punta Toro virus) was “inactive” and the Ki (Adenosylhomocysteinase [1]) was 4 µM. For the same compound, the NAD (Adenosylhomocysteinase [2]) was 18%, the K inact (Adenosylhomocysteinase [3]) was 0.07 min⁻¹ and the MIC (Sindbis virus) was “inactive”. The MIC (Tacaribe virus) was 40 µM (≈ 12.4 µg/mL), the MTC (Vero) was over 650 µM and the MIC (Junin virus) was 65 µM (≈ 20.1 µg/mL). The MIC (Coxsackievirus B4) was “inactive”.

Work on `C#CSC[C@H]1OC(n2cnc3c(N)ncnc32)[C@H](O)[C@@H]1O` (stereo partly specified) yielded an MTC (E6SM) of 30 µM, a Ki (Adenosylhomocysteinase [1]) of 10 µM and an NAD (Adenosylhomocysteinase [2]) of 36%. It also gave a K inact (Adenosylhomocysteinase [3]) of 0.12 min⁻¹.
